Assay results published in US20250041429A1, “COMPOUND HAVING BTK PROTEIN DEGRADATION ACTIVITY, AND MEDICAL USES THEREOF” (UBIX THERAPEUTICS, INC., priority 2021, published 2025).

Biological target: T1, BTK protein (Homo sapiens, UniProt Q06187)
T1 construct: endogenous in cells; host or cells: TMD-8 cells
Assay: Measurement of BTK protein degradation ability in TMD-8 cells (Western blotting)
Assay type: cell-based
Conditions: harvested after 24 hours; for BTK degradation (%) 1 nM: compound 1 nM; for BTK degradation (%) 10 nM: compound 10 nM; for BTK degradation (%) 100 nM: compound 100 nM
Outline: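 TMD-8 cells (1×10^6/mL) were treated for 24 h with compound at 0.1, 1, 10 μM or 0.0001–0.1 μM, with DMSO as vehicle control. RIPA lysates were normalized by BCA assay. BTK was detected by Western blot with anti-BTK, using GAPDH or β-actin as loading controls, and imaged on LI-COR Odyssey.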

T1 sequence (Q06187 whole entry): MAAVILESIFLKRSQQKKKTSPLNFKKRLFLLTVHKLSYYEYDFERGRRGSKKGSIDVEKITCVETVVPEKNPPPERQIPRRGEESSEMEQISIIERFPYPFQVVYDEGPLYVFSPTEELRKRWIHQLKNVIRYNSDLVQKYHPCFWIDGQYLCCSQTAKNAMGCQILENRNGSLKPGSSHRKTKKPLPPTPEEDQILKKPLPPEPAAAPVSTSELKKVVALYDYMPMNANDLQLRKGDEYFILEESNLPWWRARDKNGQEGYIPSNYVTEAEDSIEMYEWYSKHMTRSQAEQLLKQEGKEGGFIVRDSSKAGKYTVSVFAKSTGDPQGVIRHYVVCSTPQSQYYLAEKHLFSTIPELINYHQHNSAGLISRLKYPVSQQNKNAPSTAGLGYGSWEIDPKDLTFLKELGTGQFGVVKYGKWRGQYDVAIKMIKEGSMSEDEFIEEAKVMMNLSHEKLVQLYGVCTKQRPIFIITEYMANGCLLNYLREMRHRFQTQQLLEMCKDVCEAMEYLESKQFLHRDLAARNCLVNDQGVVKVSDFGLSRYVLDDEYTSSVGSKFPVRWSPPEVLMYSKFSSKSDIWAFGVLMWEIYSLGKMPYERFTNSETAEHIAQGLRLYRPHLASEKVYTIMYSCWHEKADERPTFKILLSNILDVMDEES

SMILES | BTK degradation (%) 1 nM | BTK degradation (%) 10 nM | BTK degradation (%) 100 nM
Cc1cc(-c2ccnc(Nc3ccc(N4CC(CN5CCN(C(=O)c6cccc(NC7CCC(=O)NC7=O)c6)CC5)C4)cc3)n2)ccc1CNC(=O)N1CC(OC(C)C)C1 (centres unmarked) [Example 113, N-(4-(2-((4-(3-((4-(3-((2,6-dioxopiperidin-3-yl)amino)benzoyl)piperazin-1-yl)methyl)azetidin-1-yl)phenyl)amino)pyrimidin-4-yl)-2-methylbenzyl)-3-isopropoxyazetidine-1-carboxamide] | 39.5% | 97.0% | 100.0%
Cc1cc(-c2ccnc(Nc3ccc(N4CCN(CC5CCN(c6ccc7c(c6)C(=O)N(C6CCC(=O)NC6=O)C7=O)CC5)CC4)cc3)n2)ccc1CNC(=O)N1CC(OC(C)C)C1 (centres unmarked) [Example 7, N-(4-(2-((4-(4-((1-(2-(2,6-dioxopiperidin-3-yl)-1,3-dioxoisoindolin-5-yl)piperidin-4-yl)methyl)piperazin-1-yl)phenyl)amino)pyrimidin-4-yl)-2-methylbenzyl)-3-isopropoxyazetidine-1-carboxamide] |  | 90% | 98.5%
Cc1cc(-c2ccnc(Nc3ccc(N4CCN(CC5CCN(c6cccc(N7CCC(=O)NC7=O)c6)CC5)CC4)cc3)n2)ccc1CNC(=O)c1cn(C(C)(C)C)nn1 [Example 70, 1-(tert-butyl)-N-(4-(2-((4-(4-((1-(3-(2,4-dioxotetrahydropyrimidin-1 (2H)-yl)phenyl)piperidin-4-yl)methyl)piperazin-1-yl)phenyl)amino)pyrimidin-4-yl)-2-methylbenzyl)-1H-1,2,3-triazole-4-carboxamide] | 67.0% | 97.5% | 99.5%
Cc1cc(-c2ccnc(Nc3ccc(CN4CCN(CC5CCN(c6ccc(N7CCC(=O)NC7=O)cc6)CC5)CC4)cc3)n2)ccc1CNC(=O)N1CC(OC(C)C)C1 [Example 68, N-(4-(2-((4-((4-((1-(4-(2,4-dioxotetrahydropyrimidin-1 (2H)-yl)phenyl)piperidin-4-yl)methyl)piperazin-1-yl)methyl)phenyl)amino)pyrimidin-4-yl)-2-methylbenzyl)-3-isopropoxyazetidine-1-carboxamide] | 22.5% | 88.0% | 99.0%
Cc1cc(-c2ccnc(Nc3ccc(N4CCN(CC5CN(c6ccc7c(c6)C(=O)N(C6CCC(=O)NC6=O)C7=O)C5)CC4)cc3)n2)ccc1CNC(=O)c1cn(C(C)(C)C)nn1 (centres unmarked) [Example 32, 1-(tert-butyl)-N-(4-(2-((4-(4-((1-(2-(2,6-dioxopiperidin-3-yl)-1,3-dioxoisoindolin-5-yl)azetidin-3-yl)methyl)piperazin-1-yl)phenyl)amino)pyrimidin-4-yl)-2-methylbenzyl)-1H-1,2,3-triazole-4-carboxamide] | 58.5% | 92% | 98.5%
Cc1c(NC(=O)N2CC(OC(C)C)C2)cc(F)cc1-c1ccnc(Nc2ccc(N3CCN(CC4CN(c5ccc6c(c5)C(=O)N(C5CCC(=O)NC5=O)C6=O)C4)CC3)cc2)n1 (centres unmarked) [Example 27, N-(3-(2-((4-(4-((1-(2-(2,6-dioxopiperidin-3-yl)-1,3-dioxoisoindolin-5-yl)azetidin-3-yl)methyl)piperazin-1-yl)phenyl)amino)pyrimidin-4-yl)-5-fluoro-2-methylphenyl)-3-isopropoxyazetidine-1-carboxamide] | 26.5% | 71.5% | 94.5%
Cc1cc(-c2ccnc(Nc3ccc(N4CCC(CN5CCN(c6cccc(NC7CCC(=O)NC7=O)c6)CC5)CC4)cc3)n2)ccc1CNC(=O)N1CC(OC(C)C)C1 (centres unmarked) [Example 120, N-(4-(2-((4-(4-((4-(3-((2,6-dioxopiperidin-3-yl)amino)phenyl)piperazin-1-yl)methyl)piperidin-1-yl)phenyl)amino)pyrimidin-4-yl)-2-methylbenzyl)-3-isopropoxyazetidine-1-carboxamide] | 18.5% | 91.5% | 99.5%

Second part, the compound after the results:

BTK degradation (%) 1 nM | BTK degradation (%) 10 nM | BTK degradation (%) 100 nM | SMILES
43.5% | 93.5% | 99.0% | Cc1cc(-c2ccnc(Nc3ccc(C4CCN(CC5CCN(c6cccc(N7CCC(=O)NC7=O)c6)CC5)CC4)cc3)n2)ccc1CNC(=O)c1cn(C(C)(C)C)nn1 [Example 78, 1-(tert-butyl)-N-(4-(2-((4-(1-((1-(3-(2,4-dioxotetrahydropyrimidin-1 (2H)-yl)phenyl)piperidin-4-yl)methyl)piperidin-4-yl)phenyl)amino)pyrimidin-4-yl)-2-methylbenzyl)-1H-1,2,3-triazole-4-carboxamide]
54.5% | 95.5% | 100.0% | Cc1cc(-c2ccnc(Nc3ccc(N4CCC(CN5CCC(c6ccc(NC7CCC(=O)NC7=O)cn6)CC5)CC4)cc3)n2)ccc1CNC(=O)c1cn(C(C)(C)C)nn1 (centres unmarked) [Example 132, 1-(tert-butyl)-N-(4-(2-((4-(4-((4-(5-((2,6-dioxopiperidin-3-yl)amino)pyridin-2-yl)piperidin-1-yl)methyl)piperidin-1-yl)phenyl)amino)pyrimidin-4-yl)-2-methylbenzyl)-1H-1,2,3-triazole-4-carboxamide]
17.5% | 92.5% | 100.0% | Cc1cc(-c2ccnc(Nc3ccc(N4CCC(CN5CCC(c6ccc(NC7CCC(=O)NC7=O)cc6)CC5)CC4)cc3)n2)ccc1CNC(=O)N1CC(OC(C)C)C1 (centres unmarked) [Example 123, N-(4-(2-((4-(4-((4-(4-((2,6-dioxopiperidin-3-yl)amino)phenyl)piperidin-1-yl)methyl)piperidin-1-yl)phenyl)amino)pyrimidin-4-yl)-2-methylbenzyl)-3-isopropoxyazetidine-1-carboxamide]
50.5% | 93.5% | 99.5% | Cc1cc(-c2ccnc(Nc3cnn(C4CCN(CC5CCN(c6ccc7c(c6)C(=O)N(C6CCC(=O)NC6=O)C7=O)CC5)CC4)c3)n2)ccc1CNC(=O)c1cnn(C(C)C)c1 (centres unmarked) [Example 35, N-(4-(2-((1-(1-((1-(2-(2,6-dioxopiperidin-3-yl)-1,3-dioxoisoindolin-5-yl)piperidin-4-yl)methyl)piperidin-4-yl)-1H-pyrazol-4-yl)amino)pyrimidin-4-yl)-2-methylbenzyl)-1-isopropyl-1H-pyrazole-4-carboxamide]
23.0% | 87.0% | 90.5% | Cc1cc(-c2ccnc(Nc3ccc(C4CCN(CC5CCN(c6ccc(OC7CCC(=O)NC7=O)cc6)CC5)CC4)cc3)n2)ccc1CNC(=O)c1cnn(C(C)C)c1 (centres unmarked) [Example 49, N-(4-(2-((4-(1-((1-(4-((2,6-dioxopiperidin-3-yl)oxy)phenyl)piperidin-4-yl)methyl)piperidin-4-yl)phenyl)amino)pyrimidin-4-yl)-2-methylbenzyl)-1-isopropyl-1H-pyrazole-4-carboxamide]
